This is an account of results in patent US10168338B2, “Methods of identifying modulators of sestrin-gator-2 interaction for modulating mTORC1 activity” (Whitehead Institute for Biomedical Research, priority 2014, dated 2019).

The subject of one assay is mTORC1. As to the kind of experiment: mTORC1 signaling in HEK-293T cells (S6K1 phosphorylation immunoblot). It counts as cell-based, human. To be noted: Homo sapiens; HEK-293T starved of leucine 50 minutes, restimulated 10 minutes; read-out: half-maximal effect on mTORC1 activity in cells. As to the method:
Immunoprecipitated proteins were denatured by the addition of 50 μl of sample buffer and boiling for 5 minutes as described (Kim et al., 2002), resolved by 8%-16% SDS-PAGE, and analyzed by immunoblotting using the appropriate antibody (antibodies to phospho-T389 S6K1, S6K1, Sestrin2, mTOR, Mios and FLAG all obtained from Cell Signaling Technology; antibodies to WDR24 and WDR59 were generously provided by Jianxin Xie at Cell Signaling Technology).
In order to determine the effect of amino acids on the GATOR2-Sestrin interaction, transfected cells were incubated in amino acid free RPMI for 50 minutes and then stimulated with amino acids for 10 minutes. For glucose starvation, cells were incubated in RPMI media lacking glucose but containing amino acids and dialyzed serum for 50 minutes, followed by a 10 minute restimulation with 5 mM D-Glucose. For insulin deprivation, cells were incubated in RPMI without serum for 50 minutes and restimulated with 1 μg/ml insulin for 10 minutes. Finally, when Torin1 or Rapamycin was used, cells were incubated with 250 nM of each throughout the starvation and restimulation period.

Assay [1] concerns the target T1, bacterially-produced Sestrin2 (Homo sapiens, UniProt P58004).
T1 construct: made in house; host or cells: Escherichia coli BL21 DE3 star
T1 sequence (P58004 1-480): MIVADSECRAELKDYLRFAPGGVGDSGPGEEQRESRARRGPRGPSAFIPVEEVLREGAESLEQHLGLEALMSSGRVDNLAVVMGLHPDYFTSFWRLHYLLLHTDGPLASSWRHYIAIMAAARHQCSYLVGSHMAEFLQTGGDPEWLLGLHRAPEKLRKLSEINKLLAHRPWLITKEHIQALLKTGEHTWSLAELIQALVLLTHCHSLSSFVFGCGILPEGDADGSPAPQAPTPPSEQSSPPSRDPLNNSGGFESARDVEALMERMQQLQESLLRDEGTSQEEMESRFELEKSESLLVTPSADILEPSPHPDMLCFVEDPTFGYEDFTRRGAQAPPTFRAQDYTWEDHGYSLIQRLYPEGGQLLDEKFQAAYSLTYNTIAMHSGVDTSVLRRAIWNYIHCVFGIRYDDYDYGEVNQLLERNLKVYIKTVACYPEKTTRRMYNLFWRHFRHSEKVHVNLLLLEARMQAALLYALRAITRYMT
As to the kind of experiment: Thermal shift (protein melting) assay. The format is binding. The following applies: Sestrin2 at 4 μM, Sypro orange; read-out: shift of the melting temperature of Sestrin2. On the procedure: Specific binding of leucine to the bacterially produced Sestrin2 was further confirmed by thermal shift assays. The thermal shift (protein melting) assays were performed according to the LightCycler® 480 instruction manual. Briefly, for Sestrin2, 5× Sypro® orange dye and Sestrin2 at 4 μM were combined with or without leucine or arginine (at the indicated concentrations) in thermal shift buffer (100 mM Tris pH 7.4, 100 mM NaCl, and 1 mM DTT) in a volume of up to 10 μl in one well of a LightCycler® Multiwell 384-well plate. 20× Sypro® orange dye was used for the two control proteins, human choline acetyltransferase (ChAT) (at 4 μM) or Physconitrella patens hydroxycinnamoyl transferase (PpHCT) (at 2.5 μM). Each condition was tested in triplicate. The plate was subjected to a protocol in which the temperature increased from 20° to 85° C. at 0.06° C./second. Fluorescence was recorded and plotted over time, and melting temperatures were calculated as described in the LightCycler® 480 instruction manual. Briefly, the negative first derivative of the curve shown (change in fluorescence/change in temperature) was plotted against the temperature. The peak (i.e., lowest point on this curve) reflects the melting temperature. Each reported melting temperature is the mean±SD for three replicates from one experiment.

The target in assay [2] is T1, bacterially-produced Sestrin2. As to the kind of experiment: [3H]-leucine binding to bacterially-produced His-MBP-Sestrin2 on Ni-NTA resin. To be noted: RagA-RagC heterodimer as control. On the procedure: Recombinant Sestrin2 was expressed in Escherichia coli (strain BL21 DE3 star) from the His-MBP-TEV-Sestrin2 in pMAL6H-CSXT plasmid. The bacterial cultures were grown at 30° C. to an optical density of 0.4 at which point the temperature was lowered to 18° C. After 30 minutes at 18° C., the cultures were induced overnight at 18° C. with 0.5 mM IPTG. The cells were subsequently resuspended in lysis buffer with TCEP (50 mM Tris pH 7.4, 200 mM NaCl, 5 mM MgCl2, 0.1% CHAPS, 1 mM TCEP, 200 μM leucine, and protease inhibitor tablets), which was then supplemented with lysozyme and crude DNAse. The cells underwent mechanical homogenization and the lysates were cleared by centrifugation and then loaded onto the Ni-NTA resin. […]
For binding assays performed with bacterially-produced proteins, 23.6 μg His-RagA/RagC, 23.6 μg His-MBP-TEV-Sestrin2, or 73.6 μg His-MBP-TEV-Sestrin2 were diluted into 500 μl lysis buffer (50 mM Tris pH 7.4, 200 mM NaCl, 5 mM MgCl2, 0.1% CHAPS) and incubated with 15 μl compact Ni-NTA resin as previously described. […] The samples were then well mixed with a cut tip and 10 μl of each was loaded into scintillation fluid in triplicate and quantified with a TriCarb® Scintillation Counter. Samples performed in parallel were eluted with lysis buffer+300 mM imidazole and analyzed by SDS-PAGE as described above.

Where only a bound is given, the exact number is not on record here.

As for `CC(C)C[C@H](N)C(=O)O` [leucine], the EC50 in the assay with mTORC1 lay in the range of 20 to 40 µM. The ΔTm in assay [1] is at most 8.5 °C. For the same molecule, the “binding of radiolabelled leucine to bacterially-produced Sestrin2” value in assay [2] is “bound to bacterially-produced Sestrin2”.
